EP2177209A1, “Intravenous solutions and uses” (priority 2008, dated 2010)
≈ marks a conversion by molar mass, not a printed value.

Assays:
[1] = tested on: Streptococcus oralis
[2] = tested on: Escherichia coli; details: 50 strains
[3] = tested on: methicillin-resistant Staphylococcus epidermidis (MRSE)
[4] = tested on: Pseudomonas aeruginosa; details: 50 strains
[5] = tested on: Streptococcus mitis
[6] = tested on: Moraxella catarrhalis; details: 50 strains
[7] = tested on: Streptococcus pneumoniae
[8] = tested on: Group C Streptococci
[9] = tested on: methicillin-susceptible Staphylococcus aureus (MSSA)
[10] = tested on: Clostridium difficile; details: 10 library strains
[11] = tested on: Streptococcus constellatus
[12] = tested on: Helicobacter pylori; details: 5 library strains
[13] = tested on: Streptococcus bovis
[14] = tested on: Streptococcus sanguis
[15] = tested on: Neisseria meningitidis; details: 20 library strains
[16] = tested on: Group A Streptococci
[17] = tested on: Listeria monocytogenes; details: 20 library strains
[18] = tested on: Clostridium perfringens; details: 10 library strains
[19] = tested on: Bacteroides fragilis; details: 20 library strains
[20] = tested on: Haemophilus influenzae; details: 70 strains
[21] = tested on: Group B Streptococci
[22] = tested on: Neisseria gonorrhoeae; details: 20 library strains
[23] = tested on: methicillin-susceptible Staphylococcus epidermidis (MSSE)
[24] = tested on: methicillin-resistant Staphylococcus aureus (MRSA)

CCCCCCCCCC(=O)N[C@@H](Cc1c[nH]c2ccccc12)C(=O)N[C@H](CC(N)=O)C(=O)N[C@@H](CC(=O)O)C(=O)N[C@@H]1C(=O)NCC(=O)N[C@@H](CCCN)C(=O)N[C@@H](CC(=O)O)C(=O)N[C@H](C)C(=O)N[C@@H](CC(=O)O)C(=O)NCC(=O)N[C@H](CO)C(=O)N[C@@H]([C@H](C)CC(=O)O)C(=O)N[C@@H](CC(=O)c2ccccc2N)C(=O)O[C@@H]1C [Daptomycin, daptomycin]
MIC 90% [1]: 2 mg/L (≈ 1.23 µM)
MIC MAX [1]: 2 mg/L (≈ 1.23 µM)
MIC MIN [1]: 0.25 mg/L (≈ 0.154 µM)
MIC 50% [2]: ≥128 mg/L
MIC 90% [2]: ≥128 mg/L
MIC MAX [2]: ≥128 mg/L
MIC MIN [2]: ≥128 mg/L
MIC 50% [3]: 0.25 mg/L (≈ 0.154 µM)
MIC 90% [3]: 0.5 mg/L (≈ 0.309 µM)
MIC MAX [3]: 0.5 mg/L (≈ 0.309 µM)
MIC MIN [3]: 0.06 mg/L (≈ 0.037 µM)
MIC 50% [4]: ≥128 mg/L
MIC 90% [4]: ≥128 mg/L
MIC MAX [4]: ≥128 mg/L
MIC MIN [4]: ≥128 mg/L
MIC 50% [5]: 0.5 mg/L (≈ 0.309 µM)
MIC 90% [5]: 1 mg/L (≈ 0.617 µM)
MIC MAX [5]: 1 mg/L (≈ 0.617 µM)
MIC MIN [5]: 0.12 mg/L (≈ 0.074 µM)
MIC 50% [6]: 8 mg/L (≈ 4.94 µM)
MIC 90% [6]: 16 mg/L (≈ 9.87 µM)
MIC MAX [6]: ≥128 mg/L
MIC MIN [6]: 2 mg/L (≈ 1.23 µM)
MIC 50% [7]: 0.12 mg/L (≈ 0.074 µM)
MIC 90% [7]: 0.5 mg/L (≈ 0.309 µM)
MIC MAX [7]: 0.5 mg/L (≈ 0.309 µM)
MIC MIN [7]: ≤0.03 mg/L
MIC 50% [8]: 0.12 mg/L (≈ 0.074 µM)
MIC 90% [8]: 0.25 mg/L (≈ 0.154 µM)
MIC MAX [8]: 0.5 mg/L (≈ 0.309 µM)
MIC MIN [8]: ≤0.03 mg/L
MIC 50% [9]: 0.25 mg/L (≈ 0.154 µM)
MIC 90% [9]: 0.25 mg/L (≈ 0.154 µM)
MIC MAX [9]: 0.5 mg/L (≈ 0.309 µM)
MIC MIN [9]: 0.06 mg/L (≈ 0.037 µM)
MIC 50% [10]: 0.25 mg/L (≈ 0.154 µM)
MIC 90% [10]: 2 mg/L (≈ 1.23 µM)
MIC MAX [10]: 2 mg/L (≈ 1.23 µM)
MIC MIN [10]: 0.12 mg/L (≈ 0.074 µM)
MIC 50% [11]: 0.5 mg/L (≈ 0.309 µM)
MIC 90% [11]: 0.5 mg/L (≈ 0.309 µM)
MIC MAX [11]: 0.5 mg/L (≈ 0.309 µM)
MIC MIN [11]: 0.12 mg/L (≈ 0.074 µM)
MIC 50% [12]: ≥128 mg/L
MIC 90% [12]: ≥128 mg/L
MIC MAX [12]: ≥128 mg/L
MIC MIN [12]: ≥128 mg/L
MIC 50% [13]: 0.06 mg/L (≈ 0.037 µM)
MIC 90% [13]: 0.12 mg/L (≈ 0.074 µM)
MIC MAX [13]: 0.12 mg/L (≈ 0.074 µM)
MIC MIN [13]: ≤0.03 mg/L
MIC 50% [14]: 0.25 mg/L (≈ 0.154 µM)
MIC 90% [14]: 0.5 mg/L (≈ 0.309 µM)
MIC 50% [15]: 64 mg/L (≈ 39.5 µM)
MIC MAX [15]: ≥128 mg/L
MIC MIN [15]: 8 mg/L (≈ 4.94 µM)
MIC 50% [16]: ≤0.03 mg/L
MIC 90 [16]: 0.06 mg/L (≈ 0.037 µM)
MIC MAX [16]: 0.12 mg/L (≈ 0.074 µM)
MIC MIN [16]: ≤0.03 mg/L
MIC 50% [17]: 1 mg/L (≈ 0.617 µM)
MIC 90% [17]: 2 mg/L (≈ 1.23 µM)
MIC MAX [17]: ≥128 mg/L
MIC MIN [17]: 0.015 mg/L (≈ 0.00926 µM)
MIC 50% [18]: 1 mg/L (≈ 0.617 µM)
MIC 50% [19]: ≥128 mg/L
MIC 90% [19]: ≥128 mg/L
MIC MAX [19]: ≥128 mg/L
MIC MIN [19]: ≥128 mg/L
MIC 50% [20]: ≥128 mg/L
MIC 90% [20]: ≥128 mg/L
MIC MAX [20]: ≥128 mg/L
MIC MIN [20]: ≥128 mg/L
MIC 50% [21]: 0.5 mg/L (≈ 0.309 µM)
MIC 90% [21]: 1 mg/L (≈ 0.617 µM)
MIC MAX [21]: 1 mg/L (≈ 0.617 µM)
MIC MIN [21]: 0.12 mg/L (≈ 0.074 µM)
MIC 50% [22]: ≥128 mg/L
MIC 90% [22]: ≥128 mg/L
MIC MIN [22]: 64 mg/L (≈ 39.5 µM)
MIC 50% [23]: 0.25 mg/L (≈ 0.154 µM)
MIC 90% [23]: 0.5 mg/L (≈ 0.309 µM)
MIC MAX [23]: 1 mg/L (≈ 0.617 µM)
MIC MIN [23]: 0.06 mg/L (≈ 0.037 µM)
MIC 50% [24]: 0.25 mg/L (≈ 0.154 µM)
MIC 90% [24]: 0.5 mg/L (≈ 0.309 µM)
MIC MAX [24]: 1 mg/L (≈ 0.617 µM)
MIC MIN [24]: 0.12 mg/L (≈ 0.074 µM)
